Here are results for one molecule from patent US20110039901A1, “PROCESS FOR PREPARING A CRYSTALLINE FORM COMPOUND OF 3-BENZYL-2-METHYL-2,3,3a,4,5,6,7,7a-OCTAHYDROBENZO[d]ISOXAZOL-4-ONE” (Abiogen Pharma S.P.A., priority 2008, published 2011).

The structures appear in SMILES notation.

A short description of this data set: stability of the hydrochloride salt at elevated temperature. In kind it is physicochemical. As to conditions: at temperatures above 30° C.

Regarding `CN1OC2CCCC(=O)C2C1Cc1ccccc1.Cl` (stereo not shown) [hydrochloride salt of BTG 1640], the stability at temperature result is “unstable”.
